The results in this text go back to patent US4521537A, “Spiro[2H-1,4-benzodioxepin-3(5H)4'-piperidine and -3'-pyrrolidine] compounds and their use as antihypertensive agents” (Hoechst-Roussel Pharmaceuticals Incorporated, priority 1984, dated 1985).

Structures are written as SMILES. Counter-ions that a name gives are not always drawn. Like-named read-outs stand apart in the source and are kept apart here.

Experiment [1] has as its system spontaneous hypertensive rat. The experiment can be described thus: antihypertensive activity, spontaneous hypertensive rat (SHR) test, indirect tail cuff method. Conditions: 50 mg/kg PO. The class given is in vivo. As for the experimental part: Compounds of this invention are useful as antihypertensive agents due to their ability to depress blood pressure in mammals. Antihypertensive activity is measured in the spontaneous hypertensive rat by the indirect tail cuff method described by A. Schwartz, Ed., Methods in Pharmacology, Vol. page 135, Appleton Century Crafts, New York (1971). […] The drop in blood pressure is measured on the third day following administration. The antihypertensive activity is expressed as mm Hg decrease in mean arterial blood pressure.

For a further experiment, the system named is mice. In words: phenylquinone-induced writhing test in mice (PQW), analgesia. Format: in vivo, male, CD-1 mice. Particulars: Mus musculus; for change in vivo at 20 mg/kg / change in vivo at 5 mg/kg / change in vivo at 10 mg/kg: read-out: PQW % (percent inhibition of writhing); for change in vivo at 5 mg/kg: 5 mg/kg SC; for ED50: read-out: ED50 (PQW). As for the experimental part: Compounds of this invention produce analgesia when administered to mammals. A phenylquinone-induced writhing test in mice (PQW) was used as an assay to detect analgesia. The procedure employed was a modification of Siegmund, E., Cadmus, R. and Lu, G: Proc. Soc. Exptl. Bio. Med., 95: 729 (1957). 12.5 mg of phenyl-p-benzoquinone were dissolved in 5 ml of 95% ethanol and q.s. to 100 ml with distilled water and administered to mice (10 ml/kg, i.p.). This produces a characteristic "writhe" which is defined as an inward rotation of one or more feet with twisting and turning of the trunk, drawing in of the abdominal wall, lordosis and arching of the back.
A total of 28 male, CD-1 mice (18 to 30 grams) were employed for a time response. Animals recived food and water ad libitum. Drugs to be tested were prepared with distilled water and, if insoluble, one drop of a suitable surfactant was added.
Twenty animals (5/group) were administered the drug 15, 30, 45 and 60 minutes prior to phenylquinone injections. Control animals (2/group) received an equal amount of vehicle. After the administration of phenylquinone the mice were placed separately into one-liter beakers and 5 minutes were allowed to lapse. The mice were then observed for a period of 10 minutes and the number of writhes were recorded for each animal. The formula for computing percent inhibition is: [formula]
The time period with the greatest percent of inhibition is considered the peak time.
A dose range is run in the same fashion as a time response except 10 animals per group were tested at the peak time of drug activity. Fifty animals, 4 drug groups, and a vehicle control were employed. Animals were dosed and tested in a randomized manner. An estimated ED50 was calculated by a computer linear regression analysis.

Regarding `CC1Oc2ccccc2COC12CCN(CC#N)CC2` (stereo not shown) [Example 45, 1'-(Cyanomethyl)-2-methylspiro[2H-1,4-benzodioxepin-3(5H)-4'-piperidine]], the “SHR mm Hg (decrease in mean arterial blood pressure)” value in experiment [1] (Table II) is listed as -29 mm Hg. Further, in the experiment with mice (Table II, 20 mg/kg SC), the change in vivo at 20 mg/kg was -15%.
As to `CC1Oc2ccccc2COC12CCN(CCc1ccccc1)CC2` (stereo not shown) [Example 46, 2-Methyl-1'-(2-phenylethyl)-spiro[2H-1,4-benzodioxepin-3(5H)4'-piperidine]hydrochloride], the “SHR mm Hg (decrease in mean arterial blood pressure)” value in experiment [1] (Table II) is recorded as -12 mm Hg. Also, in the experiment on mice (Table II), the change in vivo at 5 mg/kg is -87%.
Take `CC1Oc2ccccc2COC12CCN(CCO)CC2` (stereo not shown) [Example 48, 1'-(2-Hydroxyethyl)-2-methylspiro[2H-1,4-benzodioxepin-3(5H)4'-piperidine]]: in experiment [1] (Table II), the “SHR mm Hg (decrease in mean arterial blood pressure)” value is given as -23 mm Hg. Besides, in the experiment with mice (Table II, 20 mg/kg SC), the change in vivo at 20 mg/kg is -39%.
As to `CC1Oc2ccccc2COC12CCN(CCN)CC2` (stereo not shown) [Example 49, 1'-(2-Aminoethyl)-2-methylspiro[2H-1,4-benzodioxepin-3(5H)4'-piperidine]dioxalate], the “SHR mm Hg (decrease in mean arterial blood pressure)” value in experiment [1] (Table II) was -23 mm Hg. In the experiment on mice (Table II, 20 mg/kg SC), the change in vivo at 20 mg/kg was -85%. For the same molecule, in the experiment on mice (Table II, SC, computer linear regression, peak time), the ED50 is 4.7 mg/kg.
Consider `CC1Oc2ccccc2COC12CCN(CCNC(=N)N)CC2` (stereo not shown) [Example 50, [2-(2-Methylspiro[2H-1,4-benzodioxepin-3(5H)4'-piperidin]-1'-yl)ethyl]-guanidine hemisulfate hemihydrate], for which the change in vivo at 20 mg/kg with mice (Table II, 20 mg/kg SC) was -8%.
Regarding `CC1Oc2ccccc2COC12CCN(CC1CC1)CC2` (stereo not shown) [Example 51, 1'-Cyclopropylmethyl-2-methylspiro[2H-1,4-benzodioxepin-3(5H)4'-piperidine]oxalate], in the experiment on mice (Table II, 10 mg/kg SC), the change in vivo at 10 mg/kg was -61%.
Consider `CC1Oc2ccccc2COC12CCN(CCCc1noc3cc(F)ccc13)CC2` (stereo not shown) [Example 52, 1'-[3-(6-Fluoro-1,2-benzisoxazol-3-yl)propyl]-2-methylspiro[2H-1,4-benzodioxepin-3(5H)4'-piperidine]maleate], for which the “SHR mm Hg (decrease in mean arterial blood pressure)” value in experiment [1] (Table II) is given as -67 mm Hg. Further, the change in vivo at 5 mg/kg in the experiment with mice (Table II) was -82%.
With `Cc1[nH]c2ccccc2c1CCCN1CCC2(CC1)OCc1ccccc1OC2C` (stereo not shown) [Example 53, 2-Methyl-1'-[3-(2-methylindol-3-yl)propyl]spiro[2H-1,4-benzodioxepin-3(5H)4'-piperidine]fumarate], the “SHR mm Hg (decrease in mean arterial blood pressure)” value in experiment [1] (Table II) is given as -32 mm Hg. The change in vivo at 20 mg/kg in the experiment with mice (Table II, 20 mg/kg SC) is -30%.
Take `CCCCCN1CCC2(CC1)OCc1ccccc1OC2C` (stereo not shown) [Example 54, 2-Methyl-1'-pentylspiro[2H-1,4-benzodioxepin-3(5H)4'-piperidine]oxalate]: in the experiment with mice (Table II, 20 mg/kg SC), the change in vivo at 20 mg/kg is -36%.
On to `CC1Oc2ccccc2COC12CCN(CCCN)CC2` (stereo not shown) [Example 55, 2-Methyl-1'-(3-aminopropyl)spiro[2H-1,4-benzodioxepin-3(5H)4'-piperidine]dioxalate], for which the “SHR mm Hg (decrease in mean arterial blood pressure)” value in experiment [1] (Table II) is on record as -28 mm Hg. Besides, the change in vivo at 20 mg/kg in the experiment with mice (Table II, 20 mg/kg SC) is -28%.
The corresponding values for `CC1Oc2ccccc2COC12CCN(CCc1ccc([N+](=O)[O-])cc1)CC2` (stereo not shown) [Example 56, 1'-[2-(4-Nitrophenyl)ethyl]2-methylspiro[2H-1,4-benzodioxepin-3(5H)4'piperidine]oxalate] are -17 mm Hg and -30%.
The corresponding values for `CC1Oc2ccccc2COC12CCN(CCc1ccc(N)cc1)CC2` (stereo not shown) [Example 57, 1'-[2-(4-Aminophenyl)ethyl]-2-methylspiro[2H-1,4-benzodioxepin-3(5H)4'-piperidine]maleate hydrate] are -12 mm Hg and -99%.
Turning to `CC1Oc2ccccc2COC12CCN(CCN(C)C)CC2` (stereo not shown) [Example 58, 1'-[2-(N,N-dimethylamino)ethyl]-2-methylspiro[2H-1,4-benzodioxepin-3(5H)4'-piperidine]dihydrochloride], the change in vivo at 20 mg/kg with mice (Table II, 20 mg/kg SC) is -6%.
For the molecule `CC1Oc2ccccc2COC12CCN(CCN1CCOCC1)CC2` (stereo not shown) [Example 59, 1'-[2-(1-Morpholino)ethyl]-2-methylspiro[2H-1,4-benzodioxepin-3(5H)4'-piperidine]dihydrochloride], the “SHR mm Hg (decrease in mean arterial blood pressure)” value in experiment [1] (Table II) is given as -18 mm Hg. The change in vivo at 20 mg/kg with mice (Table II, 20 mg/kg SC) is -52%.
In the case of `CC1Oc2ccccc2COC12CCN(CCC(C#N)(c1ccccc1)c1ccccc1)CC2` (stereo not shown) [Example 61, 2-Methyl-1'-[3-cyano-3,3-diphenylpropyl]spiro[2H-1,4-benzodioxepin-3(5H)4'-piperidine]hydrochloride], in the experiment on mice (sc), the change in vivo at 20 mg/kg is -25%.
Turning to `CC1Oc2cc(Cl)ccc2COC12CCNCC2` (stereo not shown) [Example 65, 8-Chloro-2-methylspiro[2H-1,4-benzodioxepin-3(5H)4'-piperidine]oxalate], the change in vivo at 10 mg/kg in the experiment with mice (sc) was -98%.
Take `CC1Oc2cc(Cl)ccc2COC12CCN(CC#N)CC2` (stereo not shown) [Example 66, 8-Chloro-1'-cyanomethyl-2-methylspiro[2H-1,4-benzodioxepin-3(5H)4'-piperidine]]: the change in vivo at 20 mg/kg in the experiment on mice (Table II, 20 mg/kg SC) is -9%.
Consider `CC1Oc2ccccc2COC12CCN(CCC#N)CC2` (stereo not shown) [Example 67, 1'-(2-Cyanoethyl)-2-methylspiro[2H-1,4-benzodioxepin-3(5H)4'-piperidine]oxalate], for which, in experiment [1] (Table II), the “SHR mm Hg (decrease in mean arterial blood pressure)” value is reported as -30 mm Hg. In the experiment on mice (Table II, 20 mg/kg SC), the change in vivo at 20 mg/kg was -40%.
In the case of `COC(=N)N1CCC2(CC1)OCc1ccccc1OC2C` (stereo not shown) [Example 69, 2-Methylspiro[2H-1,4-benzodioxepin-3(5H)4'-piperidine]-1'-carboximidic acid, methyl ester hydrochloride], the change in vivo at 20 mg/kg with mice (Table III, 20 mg/kg SC) is -74%.
As for `CNC(=O)N1CCC2(CC1)OCc1ccccc1OC2C` (stereo not shown) [Example 70, N,2-Dimethylspiro[2H-1,4-benzodioxepin-3(5H)4'-piperidine]-1'-carboxamide], the “SHR mm Hg (decrease in mean arterial blood pressure)” value in experiment [1] (Table III) is given as -39 mm Hg. Also, in the experiment with mice (Table III, 20 mg/kg SC), the change in vivo at 20 mg/kg was -35%.
In the same order, the values of `CCNC(=O)N1CCC2(CC1)OCc1ccccc1OC2C` (stereo not shown) [Example 71, N-Ethyl-2-methylspiro[2H-1,4-benzodioxepin-3(5H)4'-piperidine]-1'-carboxamide] are -67 mm Hg and -46%.
On to `CC(=O)N1CCC2(CC1)OCc1ccccc1OC2C` (stereo not shown) [Example 73, 1'-Acetyl-2-methylspiro[2H-1,4-benzodioxepin-3(5H)4'-piperidine]], for which the change in vivo at 20 mg/kg in the experiment on mice (Table III, 20 mg/kg SC) was -27%.
On to `CC1Oc2c(Cl)cccc2COC12CCN(CCCC(c1ccccc1)c1ccccc1)CC2` (stereo not shown) [Example 74, 1'-(4,4-Diphenylbutyl)-9-chloro-2-methylspiro[2H-1,4-benzodioxepin-3(5H)4'-piperidine]hydrochloride], for which the change in vivo at 20 mg/kg in the experiment with mice (Table III, 20 mg/kg SC) was -25%.
On to `CC1Oc2ccc([N+](=O)[O-])cc2COC12CCNCC2` (stereo not shown) [Example 81, 2-Methyl-7-nitrospiro[2H-1,4-benzodioxepin-3(5H)4'-piperidine]hydrochloride], for which the change in vivo at 20 mg/kg with mice (Table III, 20 mg/kg SC) is -80%.
With `CC1Oc2ccc(Cl)cc2COC12CCN(C(c1ccc(F)cc1)c1ccc(F)cc1)CC2` (stereo not shown) [Example 82, 7-Chloro-2-methyl-1'-bis(4-fluorophenyl)methylspiro[2H-1,4-benzodioxepin-3(5H)4'-piperidine]hydrochloride], in the experiment on mice (Table III, 20 mg/kg SC), the change in vivo at 20 mg/kg was -30%.
In the case of `CC1Oc2ccccc2COC12CCN(CCCCC(c1ccc(F)cc1)c1ccc(F)cc1)CC2` (stereo not shown) [Example 84, 2-Methyl-1'-[5,5-bis(4-fluorophenyl)pentyl]spiro[2H-1,4-benzodioxepin-3(5H)4'-piperidine]hydrochloride], the change in vivo at 20 mg/kg with mice (Table III, 20 mg/kg SC) is -34%.
As to `CC1Oc2ccccc2COC12CCN(CC(O)COc1ccc(F)cc1)CC2` (stereo not shown) [Example 90, 2-Methyl-1'-[2-hydroxy-3-(4-fluorophenoxy)propyl]spiro[2H-1,4-benzodioxepin-3(5H)4'-piperidine]hydrochloride], the change in vivo at 20 mg/kg with mice (Table III, 20 mg/kg SC) was -99%.
On to `COc1ccc2c(c1)c(CC(=O)O)c(C)n2C(=O)c1ccc(Cl)cc1` [Indomethacin, reference compound], for which the 50% effective dose (ED50) in the experiment with mice (po) turned out to be 0.7 mg/kg.
`CCC(=O)O[C@](Cc1ccccc1)(c1ccccc1)[C@H](C)CN(C)C` [Propoxyphene, reference compound]: the ED50 with mice (sc) stood at 3.9 mg/kg.
